Laboratory results as given in US20220396819A1, “METHOD FOR PRODUCING PEPTIDE HAVING PHYSIOLOGICAL ACTIVITY, AND PEPTIDE COMPRISING SHORT LINKER” (priority 2019, published 2022).
Read-outs that look alike come from different tables or passages of the source. Positions of bridges follow the written chain, without caps; N, C: chain ends. No end group written: not given here.

Target: T1, EpoR (Homo sapiens, UniProt P19235)
T1 construct: host or cells: cells included in the PathHunter eXpress EpoR-JAK2 Functional Assay Kit
T1 sequence (P19235 25-508): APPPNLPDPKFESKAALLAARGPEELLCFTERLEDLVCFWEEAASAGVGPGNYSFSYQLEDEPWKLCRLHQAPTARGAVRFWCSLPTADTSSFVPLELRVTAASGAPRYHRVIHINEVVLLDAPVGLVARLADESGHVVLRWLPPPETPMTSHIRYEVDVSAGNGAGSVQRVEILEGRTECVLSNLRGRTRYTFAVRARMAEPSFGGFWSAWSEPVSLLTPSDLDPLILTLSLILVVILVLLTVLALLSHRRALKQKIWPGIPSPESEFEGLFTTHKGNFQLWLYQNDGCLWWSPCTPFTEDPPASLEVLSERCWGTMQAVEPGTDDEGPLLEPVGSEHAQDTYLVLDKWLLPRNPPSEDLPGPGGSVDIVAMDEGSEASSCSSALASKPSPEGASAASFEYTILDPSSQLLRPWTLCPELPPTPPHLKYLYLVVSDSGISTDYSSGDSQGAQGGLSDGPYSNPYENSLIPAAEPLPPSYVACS
Experiment: EpoR activation ability, PathHunter eXpress EpoR-JAK2 Functional Assay Kit
Type: cell-based
Conditions: for maximum activation ability compared with rhEPO: Example 22, FIG. 35; for EpoR activation, concentration dependence: culture supernatant, FIGS. 35, 55 to 57, 61; for EpoR activation, relative activity among linker lengths: Example 38, cell-free translation solution, FIG. 70
Experimental: The EpoR activation ability of the EPO-PAS dimer peptide was evaluated using PathHunter (registered trademark) eXpress EpoR-JAK2 Functional Assay Kit (DiscoverX).
(§1) Cells for EPO activity evaluation included in PathHunter (registered trademark) eXpress EpoR-JAK2 Functional Assay Kit were seeded on a 96-well plate and cultured for 24 hours at 37° C. under 5% CO2. […] As a negative control, the culture supernatant (FIG. 32, lane 18) obtained by culturing as described in Example 20 except for using a vector containing no gene for expressing the EPO-PAS dimer peptide, diluted at the same ratio as the culture supernatant containing AET-EPO-PAS8 or AET-EPO-PAS22, was added. The prepared Substrate Reagent was added to the cells stimulated at room temperature for 3 hours, and the cells were incubated for 60 minutes. The chemiluminescence intensity was quantified with a Nivo plate reader (Perkin Elmer).
The EpoR activation ability of the EPO-PAS dimer peptide linker variant was evaluated using PathHunter (registered trademark) eXpress EpoR-JAK2 Functional Assay Kit (DiscoverX).
as §1, with “48,” for “32,”, “26)” for “18)”, “30” for “20”
The EpoR activation ability of the stabilized EPO-PAS dimer peptide was evaluated using PathHunter (registered trademark) eXpress EpoR-JAK2 Functional Assay Kit (DiscoverX).
Cells for EPO activity evaluation included in PathHunter (registered trademark) eXpress EpoR-JAK2 Functional Assay Kit were seeded on a 96-well plate and cultured for 24 hours at 37° C. under 5% CO2. To the cells, a culture supernatant containing 14.2 μg/L to 220 pg/L AET-EPO-PAS22, AET-EPO-PAS22-PAS200, or AET-EPO-PAS22-PAS600 (cultured as described in Example 20 or 33) was added. As a negative control, the culture supernatant (FIG. 58, lane 20) obtained by culturing as described in Example 33 except for using a vector containing no gene for expressing the EPO-PAS dimer peptide, diluted at the same ratio as the culture supernatant containing AET-EPO-PAS22, AET-EPO-PAS22-PAS200, or AET-EPO-PAS22-PAS600, was added. The prepared Substrate Reagent was added to the cells stimulated at room temperature for 3 hours, and the cells were incubated for 60 minutes. The chemiluminescence intensity was quantified with a Nivo plate reader (Perkin Elmer).
Cells for EPO activity evaluation included in PathHunter (registered trademark) eXpress EpoR-JAK2 Functional Assay Kit were seeded on a 96-well plate and cultured for 24 hours at 37° C. under 5% CO2. To the cells, a cell-free translation solution with translated AET-EPO-PAS8, AET-EPO-PAS49-b, or AET-EPO-PAS100-b diluted to a predetermined concentration was added. As a negative control, a cell-free translation solution with untranslated peptide, diluted at the same ratio as the cell-free translation solution with translated AET-EPO-PAS8, AET-EPO-PAS49, or AET-EPO-PAS100, was added. The prepared Substrate Reagent was added to the cells stimulated at room temperature for 3 hours, and the cells were incubated for 60 minutes. The chemiluminescence intensity was quantified with a Nivo plate reader (Perkin Elmer).

[1] = Example 22, Table 4, dimers as culture supernatant, read-out: EC50 (g/L) (converted)
[2] = Example 35, Table 7, AET-EPO-PAS22 value is that of Example 22

AETGGLYACHMGPMTWVCQPLRGAAPAAPAPAAPAAPAPAAPAAPAPAAPAAPAPAAPAAPAPAAPAAPAPAGGLYACHMGPMTWVCQPLRG (disulfide 9-18, 78-87) [AET-EPO-PAS49]
EC50 (read-out: EC50 (g/L) (converted)): 0.501 nM

AETGGLYACHMGPMTWVCQPLRGAAPAAPAPAAPAAPAPAAPAAPGGLYACHMGPMTWVCQPLRG (disulfide 9-18, 51-60) [AET-EPO-PAS22]
maximum activation ability compared with rhEPO: almost the same as that of rhEPO | EC50 [1]: 0.0531 nM | EpoR activation, concentration dependence: activated EpoR in a concentration-dependent manner

AETGGLYACHMGPMTWVCQPLRGAAPAAPAPGGLYACHMGPMTWVCQPLRG (disulfide 9-18, 37-46) [AET-EPO-PAS8]
maximum activation ability compared with rhEPO: almost the same as that of rhEPO | EC50 [1]: 0.036 nM | EpoR activation, concentration dependence: activated EpoR in a concentration-dependent manner

AETGGLYACHMGPMTWVCQPLRGGGGGSGGGGGLYACHMGPMTWVCQPLRG (disulfide 9-18, 37-46) [AET-EPO-GS8]
EC50: 0.103 nM

AETGGLYACHMGPMTWVCQPLRGGGGGSGGGGSGGGGSGGGGSGGGGLYACHMGPMTWVCQPLRG (disulfide 9-18, 51-60) [AET-EPO-GS22]
EC50: 0.216 nM

MAETGGLYACHMGPMTWVCQPLRGAAPAAPAPGGLYACHMGPMTWVCQPLRG (disulfide 10-19, 38-47) [MAET-EPO-PAS8]
EpoR activation, relative activity among linker lengths: higher activity than MAET-EPO-PAS100-b

B1: MAETGGLYACHMGPMTWVCQPLRGSAPSPSSAPASASAPASPASASASASPASSPASASSASPAASSASPASSGGLYACHMGPMTWVCQPLRG (peptide)
chain: MAETGGLYACHMGPMTWVCQPLRGSAPSPSSAPASASAPASPASASASASPASSPASASSASPAASSASPASSGGLYACHMGPMTWVCQPLRG
modifications: MAET-EPO-PAS49-b; DISULFID (10)..(19) Disulfid bridge between Cys-10 and Cys-19; DISULFID (79)..(88) Disulfid bridge between Cys-79 and Cys-88
EpoR activation, relative activity among linker lengths: higher activity than MAET-EPO-PAS100-b

B2: AET-EPO-PAS100: EPO-PAS dimer peptide linker variant, PAS linker of 100 amino acids, SEQ ID NO: 128 (protein)
chain: AETGGLYACHMGPMTWVCQPLRGAAPAAPAPAAPAAPAPAAPAAPAPAAPAAPAPAAPAAPAPAAPAAPAPAAPAAPAPAAPAAPAPAAPAAPAPAAPAAPAPAAPAAPAPAAPAAPAPAAPAGGLYACHMGPMTWVCQPLRG
EC50 (Example 32, Table 6, rhEPO, AET-EPO-PAS8, AET-EPO-PAS22 values are those in Example 22): 6.6 ng/mL

B3: AET-EPO-PAS22-PAS600: stabilized EPO-PAS dimer peptide, PAS600 bound to the C-terminus of AET-EPO-PAS22, SEQ ID NO: 145 (protein)
chain: AETGGLYACHMGPMTWVCQPLRGAAPAAPAPAAPAAPAPAAPAAPGGLYACHMGPMTWVCQPLRGAAPAAPAPAAPAAPAPAAPAAPAPAAPAAPAPAAPAAPAPAAPAAPAPAAPAAPAPAAPAAPAPAAPAAPAPAAPAAPAPAAPAAPAPAAPAAPAPAAPAAPAPAAPAAPAPAAPAAPAPAAPAAPAPAAPAAPAPAAPAAPAPAAPAAPAPAAPAAPAPAAPAAPAPAAPAAPAPAAPAAPAPAAPAAPAPAAPAAPAPAAPAAPAPAAPAAPAPAAPAAPAPAAPAAPAPAAPAAPAPAAPAAPAPAAPAAPAPAAPAAPAPAAPAAPAPAAPAAPAPAAPAAPAPAAPAAPAPAAPAAPAPAAPAAPAPAAPAAPAPAAPAAPAPAAPAAPAPAAPAAPAPAAPAAPAPAAPAAPAPAAPAAPAPAAPAAPAPAAPAAPAPAAPAAPAPAAPAAPAPAAPAAPAPAAPAAPAPAAPAAPAPAAPAAPAPAAPAAPAPAAPAAPAPAAPAAPAPAAPAAPAPAAPAAPAPAAPAAPAPAAPAAPAPAAPAAPAPAAPAAPAPAAPAAPAPAAPAAPAPAAPAAPAPAAPAAPAPAAPAAPAPAAPAAPAPAAPAAPAPAAPAAPAPAAPAAPAPAAPAAPAPAAPAAPAPAAPAAPAP
EC50 [2]: 0.32 ng/mL

B4: AET-EPO-PAS22-PAS200: stabilized EPO-PAS dimer peptide, PAS200 bound to the C-terminus of AET-EPO-PAS22, SEQ ID NO: 144 (protein)
chain: AETGGLYACHMGPMTWVCQPLRGAAPAAPAPAAPAAPAPAAPAAPGGLYACHMGPMTWVCQPLRGAAPAAPAPAAPAAPAPAAPAAPAPAAPAAPAPAAPAAPAPAAPAAPAPAAPAAPAPAAPAAPAPAAPAAPAPAAPAAPAPAAPAAPAPAAPAAPAPAAPAAPAPAAPAAPAPAAPAAPAPAAPAAPAPAAPAAPAPAAPAAPAPAAPAAPAPAAPAAPAPAAPAAPAPAAPAAPAPAAPAAPAPAAPAAPAPAAPAAPAP
EC50 [2]: 0.85 ng/mL
